Counter-ions that a name gives are not always drawn. Like-named read-outs stand apart in the source and are kept apart here.
How the values were obtained:
[1] = tested on: mice (reaction time under heat source); assay: Mouse Tail-flick test; type: in vivo, mouse (Male Charles River); details: sc, 0.5 h; for responders at 1 mg/kg: 1 mg Kg^-1, Table 3, read-out: Mouse tail flick % Protection
Experimental: Mouse Tail-flick test (Modified from the procedure published by D'Amour et al., J. Pharm. Exptl. Ther. 72, 74/1941)
Male Charles River mice, average weight 26 g, are used. Selection is carried out before beginning of experiments: only mice whose reaction time is less than 8 sec are used. They are randomly distributed into groups of 10 and dosed with compounds under test, with positive and negative controls being included.
Compounds under test are administered subcutaneously in isotonic saline in a volume of 20 ml. Kg^-1. 30 min later mice are placed again under heat source (Socrel apparatus) and reaction time is recorded.
The analgestic activity of the test compound is expressed as the percent number of mice doubling the initial time within a group. [formula]

[2] = tested on: mice (p-phenylquinone writhing); assay: Mouse p-phenylquinone Writhing test; type: in vivo, mouse (Male Charles River); details: sc, Table 2
Experimental: Mouse p-phenylquinone Writhing test (According to Siegmund et al., Proc. Soc. Exptl. Biol. 95, 729/1957)
Male Charles River mice, average weight 26 g, are randomly distributed into group of 10 and are dosed subcutaneously with compounds under test, dissolved in isotonic saline (20 ml.Kg^-1). The experiments are carried out in the presence of positive and negative controls. 20 min after the mince are injected intraperitoneally with p-phenylquinone 0.02%, 10 ml. Kg^-1, maintained at 37° C. in a water bath. The mice are placed in a perspex compartmented observation box and observed for a period of 8 min after injection of p-phenylquinone. The dose-response curve is obtained by basing observation on the all or none response.

μ receptor = μ receptor (Cavia porcellus, UniProt A0ACM8Q262); assay: Radio receptor binding to μ sites (3H-DAGO)
μ receptor, sequence (A0ACM8Q262 1-400): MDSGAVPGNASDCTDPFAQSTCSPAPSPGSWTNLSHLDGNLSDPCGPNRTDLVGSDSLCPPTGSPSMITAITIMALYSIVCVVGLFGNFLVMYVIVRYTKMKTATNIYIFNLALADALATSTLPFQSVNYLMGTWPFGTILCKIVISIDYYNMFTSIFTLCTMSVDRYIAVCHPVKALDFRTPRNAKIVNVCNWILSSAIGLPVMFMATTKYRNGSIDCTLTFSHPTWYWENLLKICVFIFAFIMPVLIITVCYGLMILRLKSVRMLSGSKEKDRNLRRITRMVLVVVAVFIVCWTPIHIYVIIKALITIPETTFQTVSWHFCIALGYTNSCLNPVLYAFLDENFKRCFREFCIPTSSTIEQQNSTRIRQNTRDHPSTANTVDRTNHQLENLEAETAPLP
Experimental: (§1) RECEPTOR AFFINITY STUDY Tissue preparation
(§2) Radio receptor binding to μ and K sites is performed on fresh guinea pig brain homogenate prepared according to Kosterlitz (1981).
(§3) Whole brain without cerebellum is homogenized in 50 mM, Tris-buffer (pH 7.4 at 0° C.) and centrifuged at 49,000×g×10 min.
(§4) The pellet is then resuspended in the same buffer, incubated at 37° C. for 45 min. and centrifuged again.
(§5) 1.9 ml of the final homogenate (1:100 in Tris-pH 7.4, 0° C.) is used for the binding assay.
Binding to μ sites (Magnan J., 1982)
^3 H [D-Ala^2, MePhe^4, Gly-ol^5 ] Enkephalin (^3 H-DAGO), an enkephalin analogue that binds selectively to μ receptor, is added to the biological substrate and incubated at 25° C. for 40 min., filtered through Whatman GF-C and washed with ice-cold Tris-buffer.
The filters are then dryed, solubilized in Filtercount and the radioactivity monitored. Non specific binding is determined in the presence of 10^-6 M Naloxone.
(§6) For the calculation of the kinetic parameters of the binding of labelled and unlabelled ligands, the equilibrium dissociation constant (KD), the inhibition constant (Ki) and the maximum number of binding sites (B max) are determined from saturation curves and competition experiments (Hill 1910; Scatchard 1949; Cheng and Prusoff 1973; Gillan et al. 1980).
(§7) A concentration of radioligand near KD is used in the binding assays evaluating our compounds.

[3] = biological target: T1, K receptor (Kappa opioid receptor) (Cavia porcellus, UniProt P41144); assay: Radio receptor binding to K sites (tritiated Ethylketocyclazocine); design: species or system guinea pig; details: for remaining activity at 1 µM: 40 min, 10^-6 M, read-out: Opiate receptor binding K, % residual specific binding at 10^-6 M
T1 construct: fresh guinea pig brain homogenate; from tissue; host or cells: guinea pig whole brain without cerebellum, homogenate
T1 sequence (P41144 whole entry): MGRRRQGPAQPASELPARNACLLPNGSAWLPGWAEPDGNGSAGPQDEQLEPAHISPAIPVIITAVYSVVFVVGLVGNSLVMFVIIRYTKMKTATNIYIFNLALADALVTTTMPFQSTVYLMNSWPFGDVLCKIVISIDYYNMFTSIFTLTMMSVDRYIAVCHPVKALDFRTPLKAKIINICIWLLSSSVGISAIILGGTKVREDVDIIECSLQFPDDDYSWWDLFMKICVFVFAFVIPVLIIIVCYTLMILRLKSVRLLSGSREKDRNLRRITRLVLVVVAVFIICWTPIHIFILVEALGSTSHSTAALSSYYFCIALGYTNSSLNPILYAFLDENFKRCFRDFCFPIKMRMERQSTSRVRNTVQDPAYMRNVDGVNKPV
Experimental: as §1, §2, §3, §4, §5
Binding to K sites (Magnan J., 1982)
The binding of tritiated Ethylketocyclazocine to brain homogenate is measured the in presence of 100 nanomolar D-Ala-D-LeuEnkephalin (DADLE) and 100 nanomolar DAGO, added to saturate the δ and μ opioid receptors respectively.
Final homogenate with solutions of the cold ligand and of the labelled ligand is incubated for 40 min. at 25° C., filtered through Whatman GF/C glass filter discs and washed.
The radioactivity bound to the filters is counted by liquid scintillation spectrophotometry.
MR 2266.500 nM is utilized to determine the saturable binding.
as §6, §7

[4] = tested on: mice (reaction time under heat source); assay: Mouse Tail-flick test; type: in vivo, mouse (Male Charles River); details: oral (os), Table 3
[5] = s.c., 30 min after dosing, Table 2, read-out: Mouse tail flick ED50
[6] = read-out: Receptor binding μ Ki, guinea pig brain homogenate, Table 2
[7] = guinea pig brain homogenate, Table 3
[8] = subcutaneous, Table 3, read-out: Mouse tail flick subcutaneous ED50

CCC(C(=O)N1CCCCC1CN1CCCC1)c1ccccc1 (single isomer, unassigned; isomer b) [Example 16, 1-(2-phenylbutyroil)-2-(1pyrrolidinylmethyl) piperidine hydrochloride. Isomer B]
responders at 1 mg/kg ([1]; subcutaneous): 40%

O=C(Cc1ccc(Cl)c(Cl)c1)N1CCCCC1CN1CCCC1 (centres unmarked) [Example 1, 1-(3,4-dichlorophenyl)acetyl-2-(1-pyrrolidinyl)methyl piperidine hydrochloride]
ED50 [1, 5]: 0.11 mg/kg
ED50 [2]: 0.2 mg/kg
Ki (μ receptor; [6]): 1860 nM
Ki ([3]; guinea pig brain homogenate, tritiated Ethylketocyclazocine with DADLE and DAGO 100 nM each, Table 2, read-out: Receptor binding K Ki): 1.83 nM

CN(C)CC1CCCCN1C(=O)Cc1ccc(Cl)c(Cl)c1 (centres unmarked) [Example 2, 1-(3,4-dichlorophenyl)acetyl-2-dimethylaminomethyl piperidine hydrochloride]
ED50 [1, 5]: 0.36 mg/kg
ED50 [2]: 0.65 mg/kg
Ki (μ receptor; guinea pig brain homogenate, Table 2, read-out: Receptor binding μ Ki): 3730 nM
Ki [3]: 8.21 nM

O=C(Cc1ccc(Cl)c(Cl)c1)N1CCCC[C@@H]1CN1CCCC1 [Example 3, (2R)-1-(3,4-dichlorophenylacetyl)-2-(1-pyrrolidinylmethyl)piperidine hydrochloride hydrate]
ED50 [1, 5]: 17.5 mg/kg
ED50 [2]: 12.4 mg/kg
Ki (μ receptor; [6]): 7110 nM
Ki [3]: 62.1 nM

O=C(Cc1ccc(Cl)c(Cl)c1)N1CCCC[C@H]1CN1CCCC1 [Example 4, (2S)-1-(3,4-dichlorophenylacetyl)-2-(1-pyrrolidinylmethyl)piperidine hydrochloride hydrate]
ED50 [1, 5]: 0.055 mg/kg
ED50 [2]: 0.12 mg/kg
Ki (μ receptor; [6]): 1560 nM
Ki [3]: 0.77 nM

CN(C)C[C@@H]1CCCCN1C(=O)Cc1ccc(Cl)c(Cl)c1 [Example 5, (2S)-1-(3,4-dichlorophenylacetyl)-2-dimethylamino methylpiperidine sesquihydrate]
ED50 [1, 5]: 1.03 mg/kg
ED50 [2]: 0.44 mg/kg
Ki (μ receptor; [6]): > 1 nM
Ki [3]: 5.01 nM

O=C(Cc1ccc(Cl)c(Cl)c1)N1CCCCCC1CN1CCCC1 (centres unmarked) [Example 8, 1-(3,4-dichlorophenylacetyl)-2-(1-pyrrolidinylmethyl)-hexahydroazepine hydrochloride]
ED50 [1, 5]: 8.76 mg/kg
Ki [3]: 6.51 nM

O=C(Cc1ccccc1)N1CCCCC1CN1CCCC1 (centres unmarked) [Example 10, 1-phenylacetyl-2-(1-pyrrolidinylmethyl)piperidine hydrochloride]
responders at 1 mg/kg ([1]; subcutaneous): 40%
remaining activity at 1 µM [3, 7]: 100%

Cc1ccc(CC(=O)N2CCCCC2CN2CCCC2)cc1C (centres unmarked) [Example 11, 1-(3,4-dimethylphenylacetyl)-2-(1-pyrrolidinylmethyl) piperidine hydrochloride]
responders at 1 mg/kg ([1]; subcutaneous): 60%
remaining activity at 1 µM [3, 7]: 67%

O=C(Cc1ccc2c(c1)CCC2)N1CCCCC1CN1CCCC1 (centres unmarked) [Example 12, 1-(5-indaneacetyl)-2-(1-pyrrolidinylmethyl)piperidine hydrochloride]
responders at 1 mg/kg ([1]; subcutaneous): 60%
remaining activity at 1 µM [3, 7]: 62%

O=C(Cc1ccc2c(c1)CCCC2)N1CCCCC1CN1CCCC1 (centres unmarked) [Example 13, 1-(6-tetralylacetyl)-2-(1-pyrrolidinylmethyl)piperidine hydrochloride]
responders at 1 mg/kg ([1]; subcutaneous): 80%
ED50 [1, 8]: 45 mg/kg
Ki (μ receptor; read-out: Opiate receptor binding μ Ki, guinea pig brain homogenate, Table 3): 500 nM
Ki ([3]; guinea pig brain homogenate, tritiated Ethylketocyclazocine, Table 3, read-out: Opiate receptor binding K Ki): 5.72 nM
ED50 [4]: 3.91 mg/kg

O=C(Cc1ccc(Cl)cc1)N1CCCCC1CN1CCCC1 (centres unmarked) [Example 14, 1-(4-chlorophenylacetyl)-2-(1-pyrrolidinylmethyl) piperidine hydrochloride]
responders at 1 mg/kg ([1]; subcutaneous): 40%
remaining activity at 1 µM [3, 7]: 61%

COc1ccc(CC(=O)N2CCCCC2CN2CCCC2)cc1OC (centres unmarked) [Example 15, 1-(3-4-dimethoxyphenylacetyl)-2-(1-pyrrolidinylmethyl) piperidine hydrochloride]
responders at 1 mg/kg ([1]; subcutaneous): 40%
remaining activity at 1 µM [3, 7]: 100%

O=C(COc1ccc(Cl)cc1)N1CCCCC1CN1CCCC1 (centres unmarked) [Example 17, 1-(4-chlorophenoxyacetyl)-2-(1-pyrrolidinylmethyl) piperidine hydrochloride]
responders at 1 mg/kg ([1]; subcutaneous): 80%
ED50 [1, 8]: 91 mg/kg
Ki [3]: 9.54 nM

— patent USRE33906E, “Cyclic carboxamide derivatives and their use as analgesics” (Dr.Lo.Zambeletti S.p.A., priority 1985, dated 1992)
